Source: patent publication US5861424A, “Composition and method for treating cancer” (priority 1995, dated 1999)
Read-outs that look alike come from different tables or passages of the source.

Legend:
[1] = system: normal monkey kidney epithelial cell line CV-1; test: Colony formation assay, normal monkey kidney epithelial cells CV-1; details: for IC50: Primates, Epithelial cell; for CV-1 (IC50): Table III;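 on all read-outs here: colonies visualized by crystal violet staining, incubation at 37 °C, IC50 relative to untreated wells given culture medium alone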
[2] = system: human colon carcinoma cell line CX-1; test: Colony formation assay, human colon carcinoma CX-1; type: cell-based; details: for IC50: Homo sapiens, Colon carcinoma cell; for Selectivity (ratio of IC50 for CV-1 and IC50 for CX-1): CV-1/CX-1
[3] = system: human pancreatic carcinoma CRL 1420 cell line; test: Colony formation assay, human pancreatic carcinoma CRL 1420; type: cell-based; details: Homo sapiens, 24 h, Table VII; 24 h treatment
Text: (§1) The control received culture media only.
The Selectivity values, CRL 1420 values and CV-1 values for compounds of the General Formulas (1) to (6) used in the present invention are shown in Table VII below.

[4] = system: human melanoma LOX cell line; test: Colony formation assay, human melanoma LOX; type: cell-based; details: Table V
Text: as §1

[5] = read-out: CV-1 (IC50), Table III, 24 h treatment, colony count after 7 to 10 days
[6] = Table III, 24 h treatment, colony count after 7 to 10 days, read-out: CX-1 (IC50)
[7] = read-out: CX-1 (IC50), Table III, 24 h treatment, colony count after 7 to 10 days
[8] = 24 h treatment, colony count after 7 to 10 days

Compound	IC50 [1, 5] [µg/mL]	IC50 [2, 6] [µg/mL]	Selectivity (ratio of IC50 for CV-1 and IC50 for CX-1) ([2]; Table III)	further results
CCN1C(=CC=c2sc(=Cc3sc4c5ccccc5ccc4[n+]3CC)n(CC)c2=O)Sc2c1ccc1ccccc21 [Compound 7]	4	0.04	100	
CCN1C(=CC=c2sc(=Cc3sc4ccc5ccccc5c4[n+]3CC)n(CC)c2=O)Sc2c1ccc1ccccc21 [Compound 20]	6		200	IC50 [2, 7]: 0.03 µg/mL
CCN1C(=CC=c2sc(=Cc3sc4ccc5ccccc5c4[n+]3CC)n(CC)c2=O)Sc2ccc3ccccc3c21 [Compound 30]	5	0.025		
CCN1C(=CC=c2sc(=Cc3ccc4ccccc4[n+]3CC)n(CC)c2=O)Sc2ccc3ccccc3c21 [Compound 40]	5.14	0.02	257	IC50 ([1]; read-out: CV-1 (IC50), Table VII): 2 µg/mL; IC50 [3]: 0.05 µg/mL
CCN1C(=CC=c2sc(=Cc3sc4c5ccccc5ccc4[n+]3CC)n(CCOC(C)=O)c2=O)Sc2ccc3ccccc3c21 [Compound 67]		0.05	200	IC50 ([1]; read-out: CV-1 (IC50)): 10 µg/mL
CCN1C(=CC=c2sc(=Cc3sc4c5ccccc5ccc4[n+]3CC)n(-c3ccccc3)c2=O)Sc2ccc3ccccc3c21 [Compound 68]	5		100	
CCN1C(=CC=c2sc(=Cc3oc4ccc5ccccc5c4[n+]3CC)n(CC)c2=O)Sc2ccc3ccccc3c21 [Compound 70]		0.04	250	IC50 ([1]; read-out: CV-1 (IC50)): 10 µg/mL
CCN1C(=CC=c2sc(=Cc3[se]c4ccccc4[n+]3CC)n(CC)c2=O)Sc2ccc3ccccc3c21 [Compound 74]			100	IC50 ([1]; read-out: CV-1 (IC50)): 10 µg/mL; IC50 [2, 7]: 0.1 µg/mL
CCN1C(C)=CSC1=CC=c1sc(=Cc2sc3ccccc3[n+]2CC)n(CC)c1=O [Compound 92]		0.05	180	CV-1 (IC50) [1, 8]: 9 µg/mL
CCN1CCSC1=CC=c1sc(=Cc2sc3cc(OC)c(OC)cc3[n+]2CC)n(CC)c1=O [Compound 134]			100	IC50 ([1]; read-out: CV-1 (IC50)): 10 µg/mL; IC50 [2, 7]: 0.1 µg/mL
CCN1CCSC1=CC=c1sc(=Cc2sc3ccccc3[n+]2CC)n(CC)c1=O [Compound 137]	5	0.05	100	
CCN1CCSC1=CC=c1sc(=Cc2sc3c4ccccc4ccc3[n+]2CC)n(CC)c1=O [Compound 138]		0.005	160	CV-1 (IC50) [1, 8]: 0.8 µg/mL
CCN1CCSC1=CC=c1sc(=CC2=[N+](CC)CCS2)n(CC)c1=O [Compound 142]	20		200	IC50 [2, 7]: 0.1 µg/mL
CCN1CCSC1=CC=c1sc(=Cc2oc3ccc4ccccc4c3[n+]2CC)n(CC)c1=O [Compound 143]	5	0.05	100	
CCN1CCSC1=CC=c1sc(=Cc2sc3c4ccccc4ccc3[n+]2CC)n(CC)c1=O [Compound 151]			250	CV-1 (IC50) [1, 8]: 20 µg/mL; CX-1 (IC50) ([2]; Table III, 24 h treatment, colony count after 7 to 10 days): 0.08 µg/mL
CCN1CCSC1=CC=c1sc(=Cc2sc3cccc(OC)c3[n+]2CC)n(CC)c1=O [Compound 154]	5	0.04	125	
CCN1CCSC1=CC=c1sc(=Cc2[se]c3ccccc3[n+]2CC)n(CC)c1=O [Compound 157]			100	IC50 ([1]; read-out: CV-1 (IC50)): 8 µg/mL; IC50 [2, 7]: 0.08 µg/mL
CCn1c(=Cc2sc3cc(C)ccc3[n+]2CC)sc(=CC=C2N(C)c3ccccc3C2(C)C)c1=O [Compound 207]	1.5	0.01	150	
CCn1c(=Cc2oc3c4ccccc4ccc3[n+]2CC)sc(=CC=C2N(C)c3ccccc3C2(C)C)c1=O [Compound 208]	6	0.01	600	IC50 ([1]; read-out: CV-1 (IC50), Table V): 6 µg/mL; IC50 ([4]; Homo sapiens, LOX, 24 h, 24 h treatment, read-out: LOX (IC50)): 0.039 µg/mL; Selectivity (CV-1 IC50 / LOX IC50) ([4]; CV-1/LOX): 154
CCOc1cc2c(cc1C)sc(C=c1sc(=CC=C3N(C)c4ccccc4C3(C)C)c(=O)n1CC)[n+]2CC [Compound 209]	1	0.01	100	
CCN1C(=CC=c2sc(=Cc3sc4c5ccccc5ccc4[n+]3CC)n(CC)c2=O)C(C)(C)c2cc(Cl)ccc21 [Compound 220]	5	0.04	125	
